The test system of test [1] is MBA-15 cells. The test can be described thus: SDF-1, bFGF and HGF secretion by stromal cells (ELISA of supernatants). It counts as cell-based, mouse. To be noted: 10 μM. The procedure:
(§1) FIGS. 7A-7F. Effect of TL-1, AK-1 and cyclic TL-1 on SDF-1, bFGF and HGF secretion by different stromal cell lines. MS-5, MBA-15 and MG-63 cells were co-cultured with 10 μM TL-1, AK-1 or cyclic TL-1 in the serum free medium for 6 hrs, or without added peptide (UT). Levels of SDF-1 (A-C), bFGF (D) and HGF (E, F) were detected in the collected supernatants by ELISA. Data shown are the mean±SD of 2 separate experiments. *P<0.05 compared to control.
(§2) SDF-1 levels in tested samples were determined by ELISA as described (Kalinkovich, A., et al., 2006) where the K15C monoclonal antibodies (mAb, INRA, Paris, France) recognizing the first three amino acids of SDF-1 were utilized as a capture Ab (10 μg/mL) in order to measure levels of intact, non-cleaved SDF-1. Levels of basic FGF (bFGF) and HGF in tested samples were determined by using corresponding capture mAbs and polyclonal biotynilated Abs (R&D Systems) as recommended by the manufacturer. In order to examine SDF-1, bFGF and HGF levels in cell supernatants, MS-5, MBA-15 and MG-63 cells were seeded in 24-well Costar wells and cultivated in RPMI 1640 or αMEM Eagle medium, respectively, with 10% FCS. When the cells reached confluence, the medium was changed to serum free medium and cells were cultivated for additional 6 hrs in the presence of various concentrations of the peptides. Medium samples were collected and centrifuged 10 min at 6000×g at 4° C. to remove cell debris. Supernatants were collected and kept at −70° C. until tested.
(§3) Because BM stromal cells, such as endosteal bone lining osteoblasts and endothelial cells are the main source of human and murine SDF-1, the capability of the peptides to affect SDF-1 secretion by mouse stromal MS-5 and MBA-15 cells, and human osteoblast MG-63 cells was examined.
(§4) In order to examine the capability of the peptides to induce secretion of other proteins, the levels of Hepatocyte growth factor (HGF) and Basic fibroblast growth factor (bFGF) were detected in the same supernatants.

The subject of test [2] is MS-5 cells. Described as above. It counts as cell-based, mouse. Particulars: 10 μM, compared with untreated cells. How it is done: as §1, §2, §3, §4
The test system of test [3] is U937 cells. Nature of the test: Transwell migration towards SDF-1. It counts as cell-based, human. The procedure: Various cells (1×10^6/mL), untreated or pretreated with peptides for 3 hrs at 96-well flat bottom plates at 37° C. were washed, 2×10^5 cells/100 μL were added to the upper chambers of Costar 24-well transwell plates with 5 μm pore filters (Corning Inc., Corning, N.Y.) and allowed to migrate for 2-4 hrs at 37° C. (95% humidity, 5% CO2) spontaneously or towards 50 ng/mL SDF-1 (rhSDF-1, Peprotech, Rocky Hill, N.J.) in medium supplemented with 10% FCS. In the chemotaxis assay, untreated cells were added to the upper chambers and the peptides were added to the lower chambers in serum free medium. Migrated cells were collected from the lower chambers and counted using a flow cytometer. Data are presented as a percentage of migrated cells.
To address this issue, the cells were incubated with the peptides for 3 hrs, washed and then allowed to migrate towards SDF-1.

Test [4] concerns the target T1, CXCR4 (Homo sapiens, UniProt P61073).
T1 construct: endogenous in cells; host or cells: human cord blood CD34+ cells, human pre-B-ALL G2 cells, U937 and HL-60 cells
The test can be described thus: CXCR4 membrane expression (flow cytometry). Format: cell-based. Particulars: human cord blood CD34+ cells, 1 or 10 μM, 3 hrs. The procedure:
FIGS. 10A-10C. TL-1 and cTL1 down-regulate CXCR4 expression on human cord blood CD34^+ and G2 cells. Human cord blood CD34^+ and G2 cells were incubated with 1 or 10 μM TL-1 or cyclic TL-1 for 3 hrs or left untreated (UT), washed, stained with CXCR4 and CCR5 Ab and analyzed by flow cytometry. Representative histograms from 3 separate experiments are shown. FIG. 10A—effect of TL-1 on CXCR4 expression. FIG. 10B—effect of cTL-1 on CXCR4 expression. FIG. 10C—effects of TL-1 and cTL-1 on CCR5 expression.
Various cell types (1×10^6/mL) were pretreated with the peptides for 3 hrs as described above, washed and then stained in staining buffer (PBS supplemented with 0.5% FCS and 0.01% sodium azide) with mouse anti-human CXCR4-PE, CCR5-FITC (R&D Systems, Minneapolis, Minn.) or CD45-FITC (ImmunoQuality Products, Groningen, The Netherlands) mAbs for 30 min at 4° C. and analyzed by flow cytometry as described (Kalinkovich, A., et al., 2006). Appropriate IgG were used as the isotype controls.
Recently, it has been shown that HBD3 could induce internalization of CXCR4 but not of CCR5 in the CEM T cells expressing both CXCR4 and CCR5 (Feng, Z. et al., 2006) implying CXCR4 specificity in HBD3 action.

For test [5], the system named is G2 cells. Nature of the test: Transwell migration towards SDF-1. Format: cell-based, human. The procedure: FIGS. 8A-8D. Effect of TL-1 and cyclic TL-1 on in vitro and in vivo cell migration. (A, C) Human CD3^+, G2, cord blood CD34^+ and peripheral blood mononuclear (PBMC) cells were preincubated with 1 and 10 μM TL-1 for 3 hrs in serum free medium, washed and allowed to migrate towards SDF-1. Migrated cells were collected and calculated by flow cytometry. Percentage of migrated cells is presented as compared to untreated (UT) control taken as 100%. (B) G2 cells were similarly preincubated with 10 μM TL-1 or cTL-1 for the indicated periods of time and percentage of migrated cells is depicted. (D) Homing assay. G2 cells were similarly preincubated with 10 μM TL-1 or cTL-1 for 3 hrs, washed and i.v. injected (10×10^6/mouse) to non-irradiated NOD/SCID mice. Percentage of G2 cells in the murine BM and spleens was determined by staining with anti-human CD45 Ab and compared with untreated (UT) cells. […]
FIGS. 9A-9B. […] Migrated cells were collected and calculated by flow cytometry. […]
Various cells (1×10^6/mL), untreated or pretreated with peptides for 3 hrs at 96-well flat bottom plates at 37° C. were washed, 2×10^5 cells/100 μL were added to the upper chambers of Costar 24-well transwell plates with 5 μm pore filters (Corning Inc., Corning, N.Y.) and allowed to migrate for 2-4 hrs at 37° C. […] Migrated cells were collected from the lower chambers and counted using a flow cytometer. […]

Test [6] has as its system MG-63 cells. The test can be described thus: SDF-1, bFGF and HGF secretion by stromal cells (ELISA of supernatants). Particulars: 10 μM, compared with untreated cells. It counts as cell-based, human. The procedure: as §1
as §2, with “When the cells reached confluence, the medium was changed to serum free medium and cells were cultivated for additional 6 hrs in the presence of various concentrations of the peptides. Medium samples were collected and centrifuged 10 min at 6000×g at 4° C. to remove cell debris. Supernatants were collected and kept at −70° C. until tested.” left out
as §4

The test system of test [7] is G2 cells and mouse BM MNC. The test can be described thus: Chemotaxis assay (untreated cells migrate towards peptide in bottom chamber). It counts as cell-based. To be noted: 1 and 10 μM peptide in bottom chamber, 4 hrs. How it is done:
FIGS. 9A-9B. AK-1 increases SDF-1-induced migration and chemotaxis of G2 and mouse bone marrow mononuclear cells (BM MNC). (A) G2 cells and mouse BM MNC were preincubated with 1 and 10 μM AK-1 for 3 hrs in serum free medium, washed and allowed to migrate towards SDF-1. Migrated cells were collected and calculated by flow cytometry. Percentage of migrated cells is presented as compared to untreated control taken as 100%. (B) Untreated G2 cells and mouse BM MNC were put to the upper chambers of the transwell plates and allowed to migrate towards 1 and 10 μM AK-1 present the bottom chambers of the transwell plates for 4 hrs. Percentage of migrated cells is presented as compared to untreated (UT) control taken as 100%. Data shown are the mean±SD of 2 separate experiments. *P<0.05 compared to control.
Various cells (1×10^6/mL), untreated or pretreated with peptides for 3 hrs at 96-well flat bottom plates at 37° C. were washed, 2×10^5 cells/100 μL were added to the upper chambers of Costar 24-well transwell plates with 5 μm pore filters (Corning Inc., Corning, N.Y.) and allowed to migrate for 2-4 hrs at 37° C. (95% humidity, 5% CO2) spontaneously or towards 50 ng/mL SDF-1 (rhSDF-1, Peprotech, Rocky Hill, N.J.) in medium supplemented with 10% FCS. […] Migrated cells were collected from the lower chambers and counted using a flow cytometer. […]

The structures appear in SMILES notation. Peptide text beside a SMILES is read from it.

T1 sequence (P61073 whole entry): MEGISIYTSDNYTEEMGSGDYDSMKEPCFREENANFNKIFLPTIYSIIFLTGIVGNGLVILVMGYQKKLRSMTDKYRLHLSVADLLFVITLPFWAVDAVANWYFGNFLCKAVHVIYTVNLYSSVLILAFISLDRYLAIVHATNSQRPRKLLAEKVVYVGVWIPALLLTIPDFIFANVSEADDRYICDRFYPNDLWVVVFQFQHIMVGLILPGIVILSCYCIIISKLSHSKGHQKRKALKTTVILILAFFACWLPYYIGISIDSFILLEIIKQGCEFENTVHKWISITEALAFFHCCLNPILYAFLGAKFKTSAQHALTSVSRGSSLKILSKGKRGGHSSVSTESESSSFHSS

Consider `N=C(N)NCCC[C@@H]1NC(=O)CNC(=O)[C@H](CCCNC(=N)N)NC(=O)[C@H](CCCCN)NC(=O)[C@H](CCCCN)NC(=O)[C@H](CCCNC(=N)N)NC(=O)[C@H](CCCNC(=N)N)NC(=O)[C@H](CS)NC(=O)[C@H](CS)NC(=O)[C@H](CCCCN)NC1=O` [cyclic TL-1, 1,10-cyclo[RGRKCCRRKK]] (cyclo(CCRRKKRGRK)), for which, in test [1], the “HGF secretion into supernatants” value was “induced elevation”. In addition, the “levels of SDF-1 in supernatants” value in test [1] (compared with untreated cells) is “increased the levels of SDF-1 secretion by MS-5 and MBA-15 cells but much less as compared with TL-1 and AK-1”; in test [2], “increased the levels of SDF-1 secretion by MS-5 and MBA-15 cells but much less as compared with TL-1 and AK-1”; in test [6], “ineffective”. Further, the SDF-1-induced migration entry in test [3] (1 μM) and in test [5] (1 μM) was “ineffective” throughout. In addition, the “inhibition of SDF-1-induced migration” value in test [3] (10 μM) and in test [5] (10 μM) was 2 fold in each case. In test [4], the CXCR4 expression result was “decreased CXCR4 expression”. Besides, in test [7], the “chemotaxis of untreated cells towards the peptide” value is recorded as “ineffective”.

For the origin of these results see patent US9567371B2, “Short beta-defensin-derived peptides” (Yeda Research and Development Co. Ltd., priority 2009, dated 2017).
